In this assay the target is T1, human complement factor D (Homo sapiens, UniProt P00746).
T1 construct: purchased R&D Systems 1824-SE
T1 sequence (P00746 26-253): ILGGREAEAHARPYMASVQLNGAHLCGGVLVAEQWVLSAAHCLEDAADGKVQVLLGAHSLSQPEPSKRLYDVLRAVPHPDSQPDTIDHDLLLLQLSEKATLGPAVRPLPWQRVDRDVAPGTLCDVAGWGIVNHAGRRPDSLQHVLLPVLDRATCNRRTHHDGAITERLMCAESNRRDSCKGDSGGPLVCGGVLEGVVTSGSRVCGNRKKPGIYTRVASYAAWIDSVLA
Put plainly: In vitro enzyme inhibition (Z-Lys-SBzl/DTNB absorbance assay). In kind it is biochemical. To be noted: Complement Factor D (R&D Systems), substrate Z-Lys-SBzl, A405 nm; read-out: CFD IC50. As to the method:
The ability of the compounds disclosed herein to inhibit human complement factor D inhibitory activity was quantified according to the 12-step protocol provided below. • 1. Prepare assay buffer: 50 mM Tris/HCl, pH 7.5, 1 M NaCl. • 2. Dilute 10 mM Complement Factor D inhibitor Nafamostat Mesilate (Selleckchem, Catalog #S1386) solution from 10000 μM to 9.77 μM in 100% DMSO, 8 concentrations. Then dilute the serial concentrations of Nafamostat Mesilate 20-fold in assay buffer. • 3. Add 10 μl diluted Nafamostat Mesilate duplicated into each of the inhibitor control well of a 96-well plate (Corning, Catalog #3599). Final concentrations were 50 μM, 25 μM, 12.5 μM, 6.25 μM, 3.125 μM, 0.781 μM, 0.195 μM and 0.049 μM. 0.5% DMSO was in each well finally. • 4. Dilute 20 mM test compounds from 10000 μM to […] in 100% DMSO, 6-fold dilution, 8 concentrations. Then dilute the serial concentrations of test compounds 20-fold in assay buffer. • 5. Add 10 μl diluted test compounds duplicated into the 96-well plate. Final concentrations were 50 μM, 8.33 μM, 1.39 μM, 0.23 μM, 0.0386 μM, 0.0064 μM, 0.0011 μM and 0.0002 μM. 0.5% DMSO was in each well finally. • 6. Dilute 20 mM substrate Z-Lys-SBzl (Bachem, Cat #M-1300) to 200 μM in assay buffer with 200 μM DTNB(Sigma, Catalog #D8130). • 7. Dilute 738 ng/μL Complement Factor D (R&D Systems, Catalog #1824-SE) to 6.25 ng/μL in assay buffer. Add 40 μl diluted Complement Factor D in the 96-well plate. • 8. Positive control well contains Complement Factor D without test compound. Negative control well contains neither Complement Factor D nor test compound. Using assay buffer, bring the total volume of all controls to 50 μl. • 9. Pre-incubate the plate for 5 min at room temperature. • 10. Add 50 μl of diluted substrate/DTNB mixture into each well. Mix the reagents completely by shaking the plate gently for 30 sec. • 11. For kinetic reading: Immediately start measuring absorbance (A405 nm) continuously and record data every 30sec for 60 min. • 12. Data analysis • Inhibition activity of compound was evaluated by IC50. IC50 was calculated according the dose-response curve of compound fitted using GraphPadPrism with “log(inhibitor)-response (variable slope)” equation. • % inhibition was calculated by using following equation:
[formula] • Mean(NC): The average value of the negative control wells' A405 nm values. • Mean(PC): The average value of the positive control wells' A405 nm values.
The ability of the compounds in Table 2 to inhibit human complement factor D inhibitory activity was determined.
What is called IC50 is the concentration needed to halve the response being measured. For `COC(=O)c1cc(Cl)nc(NC(=O)[C@@H]2[C@H]3CC[C@H](C3)N2C(=O)Cn2nc(C(N)=O)c3ccccc32)c1` [Example 103, methyl 2-((1R,3S,4S)-2-(2-(3-carbamoyl-1H-indazol-1-yl)acetyl)-2-azabicyclo[2.2.1]heptane-3-carboxamido)-6-chloroisonicotinate], the IC50 lay within 0.1 to 1 µM.

In the case of `NC(=O)c1nn(CC(=O)N2[C@@H]3CC[C@@H](C3)[C@H]2C(=O)Nc2cncc(Cl)c2)c2ccccc12` [Example 58, 1-(2-((1R,3S,4S)-3-((5-chloropyridin-3-yl)carbamoyl)-2-azabicyclo[2.2.1]heptan-2-yl)-2-oxoethyl)-1H-indazole-3-carboxamide], the IC50 was in the range of 1 to 10 µM.

Consider `COc1ccc2c(c1)c(C(C)=O)nn2CC(=O)N1[C@H](C(=O)Nc2cccc(Cl)n2)C[C@@H]2CCC[C@@H]21` [Example 175, (2S,3aS,6aS)-1-(2-(3-acetyl-5-methoxy-1H-indazol-1-yl)acetyl)-N-(6-chloropyridin-2-yl)octahydrocyclopenta[b]pyrrole-2-carboxamide], for which the IC50 is 0.1 to 1 µM.

Regarding `Cc1ccc2c(c1)c(C(N)=O)nn2CC(=O)N1[C@@H]2CC[C@@H](C2)[C@H]1C(=O)NCc1cccc(Cl)c1F` [Example 60, 1-(2-((1R,3S,4S)-3-((3-chloro-2-fluorobenzyl)carbamoyl)-2-azabicyclo[2.2.1]heptan-2-yl)-2-oxoethyl)-5-methyl-1H-indazole-3-carboxamide], the IC50 lay within 0.1 to 1 µM.

In the case of `CC(=O)c1nn(CC(=O)N2[C@@H]3CC[C@@H](C3)[C@H]2C(=O)Nc2cccc(Cl)n2)c2ccc(F)cc12` [Example 91, (1R,3S,4S)-2-(2-(3-acetyl-5-fluoro-1H-indazol-1-yl)acetyl)-N-(6-chloropyridin-2-yl)-2-azabicyclo[2.2.1]heptane-3-carboxamide], the IC50 lay in the range of 0.1 to 1 µM.

For `N#CC(NC(=O)[C@@H]1[C@H]2CC[C@H](C2)N1C(=O)Cn1nc(C(N)=O)c2ccccc21)c1cccc(Cl)c1F` (stereo partly drawn) [Example 141, 1-(2-((1R,3S,4S)-3-(((3-chloro-2-fluorophenyl)(cyano)methyl)carbamoyl)-2-azabicyclo[2.2.1]heptan-2-yl)-2-oxoethyl)-1H-indazole-3-carboxamide], the IC50 is 0.1 to 1 µM.

As for `COC(=O)Cc1ccc2c(C(N)=O)nn(CC(=O)N3[C@@H]4CC[C@@H](C4)[C@H]3C(=O)NCc3cccc(Cl)c3F)c2c1` [Example 126, methyl 2-(3-carbamoyl-1-(2-((1R,3S,4S)-3-((3-chloro-2-fluorobenzyl)carbamoyl)-2-azabicyclo[2.2.1]heptan-2-yl)-2-oxoethyl)-1H-indazol-6-yl)acetate], the IC50 lay in the range of 1 to 10 µM.

Take `NC(=O)n1cc(CC(=O)N2CC[C@H]2C(=O)NCc2cccc(Cl)c2F)c2ccccc21` [Example 186, (S)-3-(2-(2-((3-chloro-2-fluorobenzyl)carbamoyl)azetidin-1-yl)-2-oxoethyl)-1H-indole-1-carboxamide]: the IC50 lay within 0.1 to 1 µM.

On to `NC(=O)c1nn(CC(=O)N2[C@@H]3CC[C@@H](C3)[C@H]2C(=O)Nc2cccc(C3CC3)n2)c2ccccc12` [Example 3, 1-(2-((1R,3S,4S)-3-((6-cyclopropylpyridin-2-yl)carbamoyl)-2-azabicyclo[2.2.1]heptan-2-yl)-2-oxoethyl)-1H-indazole-3-carboxamide], for which the IC50 is 1 to 10 µM.

In the case of `Cc1ccc2c(c1)c(C(N)=O)nn2CC(=O)N1[C@H](C(=O)NCc2cccc(Cl)c2F)C[C@@H]2CCC[C@@H]21` [Example 165, 1-(2-((2S,3aS,6aS)-2-((3-chloro-2-fluorobenzyl)carbamoyl)hexahydrocyclopenta[b]pyrrol-1(2H)-yl)-2-oxoethyl)-5-methyl-1H-indazole-3-carboxamide], the IC50 lay in the range of 0.1 to 1 µM.

Source of the values: patent publication US20190127366A1 (LifeSci Pharmaceuticals, Inc., priority 2015, published 2019).
